Test results published in patent publication US20110086850A1, “RADIOSENSITIZATION OF TUMORS WITH INDAZOLPYRROLOTRIAZINES FOR RADIOTHERAPY” (Board of Regents, The University of Texas System, priority 2008, published 2011).

How the values were obtained:
[1] = system: HN-5 cells; experiment: Cell proliferation assay (MTT assay); format: cell-based; conditions: AC480 50 nM—1 μM, 72 hrs
Method: (§1) The radiosensitization effect of AC480 was evaluated in vitro using head neck squamous cell carcinoma cells, HNSCC-10, which express HER2 only and have no detectable amount of HER1 protein, and HN-5 cells, which express high levels of HER1 and HER2 proteins. […] AC480 was added to cell cultures that contained either HN-5 or HNSCC-10 cells 6 hrs before and kept in the medium for additional 66 hrs after irradiation. The cancerous cells were then irradiated with graded single doses of γ-radiation. At various predetermined time points after irradiation, the cells were assessed: (a) for clonogenic survival using clonogenic survival assays; (b) for apoptosis using aTUNEL assay; (c) for cell cycle distribution with FACS; and (d) for protein expression related to the cell cycle, apoptosis, and DNA repair, using Western blotting and immunoprecipitation methods.
(§2) The effect of AC480 on cell proliferation of HN-5 and UMSCC-10 cells was determined using 3-[4,5-dimethylthiozol-2-yl]-2,5-diphenyltetrazolium bromide (MTT) assay. HN-5 and UMSCC-10 cells are plated in 96-well plates and treated with a series of concentrations of AC480. […] The cells are then lysed in 150 μL of ethanol/DMSO mixture (1:1), and the absorbance read at 540 nm using a 96-well plate reader.

[2] = system: UMSCC-10 cells; experiment: Cell proliferation assay (MTT assay); format: cell-based; conditions: AC480 50 nM—1 μM, 72 hrs
Method: as §1, §2

[3] = system: HN-5 cells; experiment: Clonogenic survival assay with γ-irradiation; format: cell-based; conditions: for dose enhancement ratio at survival fraction of 0.5: cell line not named in the sentence (HN-5 by context)
Method: as §1
(§3) HN-5 or UMSCC-10 cells were counted and plated. Twenty-four hours later, the cells in culture were then exposed to AC480 at 300 or 600 nM for 6 hrs. The cells were then irradiated with graded doses at 2, 4, or 6 Gy of γ-rays using a ^137Cs source (3.7 Gy/min). Sixty-six hours later, culture media with AC480 were removed and fresh media were added. Media change was also done for untreated control cells at the same time. After 11 to 14 days of incubation, colonies were counted. […] The dose enhancement ratio at survival fraction of 0.5 was 1.30 for 300 nM and 1.43 for 600 nM of AC480. Dose enhancement ratio was calculated by dividing the radiation dose required to achieve a surviving fraction of 0.5 in the absence of AC480 with the radiation dose required to achieve the same surviving fraction in the presence of AC480 at a specified concentration.

[4] = system: UMSCC-10 cells; experiment: Clonogenic survival assay with γ-irradiation; format: cell-based; conditions: AC480 300 or 600 nM from 6 hrs before to 66 hrs after 2, 4 or 6 Gy γ-rays
Method: as §1, §3

[5] = system: HN-5 cells; experiment: TUNEL assay, radiation-induced apoptosis; format: cell-based
Method: as §1
(§4) Apoptotic cells are detected by in-situ labeling of fragmented DNA with enzymatically labeled nucleotides using the TUNEL method as described in commercial protocols or by following the procedure described in Sgonc et al., Trends in Genetic 1994, 10, 41-42. AC480 increased radiation-induced apoptosis in HN-5 but not in UMSCC-10 cells (FIG. 5).

[6] = system: UMSCC-10 cells; experiment: TUNEL assay, radiation-induced apoptosis; format: cell-based
Method: as §1, §4

[7] = system: HN-5 cells; experiment: Cell-cycle analysis (FACS) after radiation; format: cell-based
Method: as §1
(§5) Cell cycle distribution is measured by determining the ploidy of cells by staining the cells with fluorescent dye and sorting by FACS using a commercially available kit. AC480 increased radiation-induced accumulation of HN-5 but not in UMSCC-10 cells in the G1 cell cycle phase (FIG. 6).

[8] = system: UMSCC-10 cells; experiment: Cell-cycle analysis (FACS) after radiation; format: cell-based
Method: as §1, §5

[9] = system: γ-H2AX foci; experiment: γ-H2AX foci immunocytochemistry (DNA repair); format: cell-based; conditions: 24 hrs after radiation; AC480 600 nM (FIG. 7)
Method: The control is shown as open circle and solid line.
as §1
The extent of DNA repair is quantified by measuring the generation of nuclear foci at the site of DNA damage by phosphorylated H2AX (γ-H2AX), which is involved in the retention of repair and signaling factor complexes at sites of DNA double strand breaks. γ-H2AX is detected with antibodies to phosphorylated H2AX using traditional immunohistochemistry (See, e.g., Friesner et al., Mol. Biol. Cell. 2005, ^-16, 2566-2576; and Dote et al., Clin. Cancer Res. 2005, 11, 4571-4579). […]

[10] = system: HN-5 tumor xenografts; experiment: Tumor growth delay assay, HN-5 tumor xenografts; format: in vivo, nude male mice; conditions: AC480 120 mg/kg gavage once daily for 14 days
Method: The terms “dose enhancement ratio” and “dose enhancement factor” are used interchangeably herein and are used herein to measure the fold increase in cytotoxic efficacy of radiation when delivered in the presence of a radiosensitizer. In certain embodiments, dose enhancement ratio is calculated by dividing the radiation dose required to achieve a surviving fraction in the absence of the radiosensitizer with the radiation dose required to achieve the same surviving fraction in the presence of the radiosensitizer at a specified concentration. This calculation method can be used to assess the radiosensitizing effect of an radiosensitizer in an in vitro system, such as cells in culture. […]
The effect of AC480 on radioresponse was assessed by tumor growth delay assay using HN-5 tumor xenografts generated in nude male mice.
Specifically, HN-5 cells (1×10^6) were injected into the right leg of 3-4 month old nude male mice (nu-nu/Ncr) (SPF mice). […] Tumors were measured with calipers 3 times/week to determine tumor growth delay. […]

[11] = system: adenocarcinomas expressing HER1 and/or HER2 in salivary gland, breast, non-small cell lung, and gastric cancer cell lines; conditions: Wong et al., Clin. Cancer Res. 2006; cited from earlier work

Compound: Cc1c(NC(=O)OC[C@@H]2COCCN2)cn2ncnc(Nc3ccc4c(cnn4Cc4cccc(F)c4)c3)c12 [AC480]
- effect on cell growth (MTT) [1]: inhibits the growth
- effect on cell growth (MTT) [2]: not
- dose enhancement ratio at survival fraction of 0.5 ([3]; 300 nM AC480): 1.30
- dose enhancement ratio at survival fraction of 0.5 ([3]; 600 nM AC480): 1.43
- effect on radiosensitivity (clonogenic survival) ([3]; HN-5 cells, AC480 300 or 600 nM from 6 hrs before to 66 hrs after 2, 4 or 6 Gy γ-rays): significantly enhanced
- effect on radiosensitivity (clonogenic survival) [4]: not
- effect on radiation-induced apoptosis (TUNEL) [5]: increased
- effect on radiation-induced apoptosis (TUNEL) [6]: not
- effect on radiation-induced accumulation of cells in the G1 cell cycle phase [7]: increased
- effect on radiation-induced accumulation of cells in the G1 cell cycle phase [8]: not
- presence of γ-H2AX foci after radiation [9]: prolonged
- effect on radioresponse of HN-5 tumors in vivo ([10]; before and during radiation (5 Gy×5 days)): improve the radioresponse
- enhancement factor (tumor growth delay) ([10]; with XRT 5 Gy×5 consecutive days, HN-5 xenografts in nude mice): 1.9
- cytotoxicity [11]: cytotoxic
